Structures can show the parent of a compound that is named as a salt. Where two headings read alike, the source gives them in different places.
Tests used:
JAK3 tyrosine kinase = target: T1, JAK3 tyrosine kinase (Homo sapiens, UniProt P52333); assay: Test 1: inhibitory activity to JAK3 tyrosine kinase (ELISA); type: biochemical; conditions: 25 μM ATP in substrate solution, 30° C. for 1 hour, n=2
T1 construct: purchased Carnabioscience Co
T1 sequence (P52333 1-1124): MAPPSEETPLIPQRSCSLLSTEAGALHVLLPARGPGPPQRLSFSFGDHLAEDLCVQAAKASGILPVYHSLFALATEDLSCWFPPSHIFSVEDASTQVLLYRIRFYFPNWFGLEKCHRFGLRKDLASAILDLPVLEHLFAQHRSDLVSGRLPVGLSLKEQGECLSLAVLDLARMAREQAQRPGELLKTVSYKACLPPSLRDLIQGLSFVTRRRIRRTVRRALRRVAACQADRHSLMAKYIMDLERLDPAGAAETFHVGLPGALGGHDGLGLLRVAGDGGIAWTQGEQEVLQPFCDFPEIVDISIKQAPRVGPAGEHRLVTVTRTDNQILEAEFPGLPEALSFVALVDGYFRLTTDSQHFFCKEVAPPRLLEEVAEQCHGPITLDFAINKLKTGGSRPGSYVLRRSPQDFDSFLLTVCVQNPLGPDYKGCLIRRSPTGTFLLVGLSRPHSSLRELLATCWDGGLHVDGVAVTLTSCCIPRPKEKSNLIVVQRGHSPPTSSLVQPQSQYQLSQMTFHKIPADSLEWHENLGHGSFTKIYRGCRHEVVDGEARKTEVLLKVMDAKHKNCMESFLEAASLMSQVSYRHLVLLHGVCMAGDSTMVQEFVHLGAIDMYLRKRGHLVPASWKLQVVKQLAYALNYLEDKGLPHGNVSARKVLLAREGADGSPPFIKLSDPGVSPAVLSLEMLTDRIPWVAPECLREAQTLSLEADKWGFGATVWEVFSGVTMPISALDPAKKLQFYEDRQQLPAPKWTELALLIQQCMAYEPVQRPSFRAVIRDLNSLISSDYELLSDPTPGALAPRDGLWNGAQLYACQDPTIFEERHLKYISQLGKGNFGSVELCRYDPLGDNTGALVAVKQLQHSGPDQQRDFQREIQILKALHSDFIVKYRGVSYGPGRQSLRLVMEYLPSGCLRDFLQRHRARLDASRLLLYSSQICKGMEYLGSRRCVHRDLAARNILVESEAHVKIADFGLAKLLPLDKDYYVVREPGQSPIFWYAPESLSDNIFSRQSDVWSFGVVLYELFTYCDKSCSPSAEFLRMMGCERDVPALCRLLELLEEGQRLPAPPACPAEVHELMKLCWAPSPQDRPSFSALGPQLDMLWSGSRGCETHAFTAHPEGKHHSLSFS
Outline: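 ELISA of JAK3 kinase activity with absorbance read at 450 nm. Compounds were tested from DMSO dilution series at 100-fold the measurement concentrations (1000–0.01 μM), diluted up to 20 times in assay buffer, against a DMSO negative control. IC50 was estimated by non-linear regression of absorbance.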

[1] = target: BaF3 cells into which JAK2 V617F gene was introduced (Homo sapiens, UniProt O60674, V617F, cells depend on it); assay: Test 2: growth inhibitory action against variant JAK2 expressed cells (MTT method); type: cell-based; conditions: incubation for 3 days, triplicate, read-out: concentration of the test material which inhibited 50% of the cell growth (IC50)
Description: Test 2: Growth inhibitory action against variant JAK2 expressed cells
BaF3 cells into which JAK2 V617F gene was introduced ([…]) were inoculated on a 96-well plate in an amount of 1×10^3 cells/well and allowed to stand in a CO2 incubator. Next day, the test material was added to the cells. The test material was serially diluted with DMSO to give 10 mM, 6 mM, 3 mM, 1 mM, 600 μM, 300 μM, 100 μM, 60 μM, 30 μM, or 10 μM solution. This was diluted 100 times with distilled water to give 100 μM, 60 μM, 30 μM, 10 μM, 6 μM, 3 μM, 1 μM, 600 nM, 300 nM, or 100 nM solution. This solution of test material was added to the well in an amount of 10 μl/well. As a negative control, 1% DMSO solution was added to the well in an amount of 10 μl/well. In the above operation, the final concentration of the test material became 10 μM, 6 μM, 3 μM, 1 μM, 600 nM, 300 nM, 100 nM, 60 nM, 30 nM, 10 nM, or 0 nM (0.1% DMSO solution). The addition of the test material solution to each well was made in triplicate.
After continuous incubation for 3 days, the viable count was determined by an MTT method. The MTT method was carried out as follows. First, 10 μl each of solution containing 5 mg/ml of MTT (3-(4,5-dimethylthiazol-2-yl)-2,5-diphenyltetrazolium bromide) was added to each well. The plate was allowed to stand in a CO2 incubator for 4 hours, and then 100 μl of 0.04N HCl/2-propanol solution was added to each well to stop the reaction. The generated MTT-formazan was dissolved well with a multi-channel pipette, and the absorbance at 595 nm was measured with reference to that at 655 nm (Thermo Co.; Multiskan FC). Non-linear regression analysis was made by means of a SAS system (SAS Institute Inc.), and the concentration (IC50) of the test material which inhibited 50% of the cell growth was estimated.

JAK2 tyrosine kinase = target: T2, JAK2 tyrosine kinase (Homo sapiens, UniProt O60674); assay: Test 1: inhibitory activity to JAK2 tyrosine kinase (ELISA); type: biochemical; conditions: 25 μM ATP in substrate solution, 30° C. for 1 hour, n=2
T2 construct: purchased Carnabioscience Co
Outline: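 This is an ELISA read at A450 (HRP anti-phosphotyrosine antibody, TMB) of biotin-peptide phosphorylation captured on streptavidin. Enzyme solution was 0.75 nM JAK2, and the substrate solution was 625 nM peptide with 25 μM ATP in Tris pH 7.5 buffer. The reaction ran 1 h at 30 °C with compounds in duplicate, and IC50 was fitted non-linearly.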

BaF3 cells into which JAK2 V617F gene was introduced, sequence (O60674 whole entry V617F): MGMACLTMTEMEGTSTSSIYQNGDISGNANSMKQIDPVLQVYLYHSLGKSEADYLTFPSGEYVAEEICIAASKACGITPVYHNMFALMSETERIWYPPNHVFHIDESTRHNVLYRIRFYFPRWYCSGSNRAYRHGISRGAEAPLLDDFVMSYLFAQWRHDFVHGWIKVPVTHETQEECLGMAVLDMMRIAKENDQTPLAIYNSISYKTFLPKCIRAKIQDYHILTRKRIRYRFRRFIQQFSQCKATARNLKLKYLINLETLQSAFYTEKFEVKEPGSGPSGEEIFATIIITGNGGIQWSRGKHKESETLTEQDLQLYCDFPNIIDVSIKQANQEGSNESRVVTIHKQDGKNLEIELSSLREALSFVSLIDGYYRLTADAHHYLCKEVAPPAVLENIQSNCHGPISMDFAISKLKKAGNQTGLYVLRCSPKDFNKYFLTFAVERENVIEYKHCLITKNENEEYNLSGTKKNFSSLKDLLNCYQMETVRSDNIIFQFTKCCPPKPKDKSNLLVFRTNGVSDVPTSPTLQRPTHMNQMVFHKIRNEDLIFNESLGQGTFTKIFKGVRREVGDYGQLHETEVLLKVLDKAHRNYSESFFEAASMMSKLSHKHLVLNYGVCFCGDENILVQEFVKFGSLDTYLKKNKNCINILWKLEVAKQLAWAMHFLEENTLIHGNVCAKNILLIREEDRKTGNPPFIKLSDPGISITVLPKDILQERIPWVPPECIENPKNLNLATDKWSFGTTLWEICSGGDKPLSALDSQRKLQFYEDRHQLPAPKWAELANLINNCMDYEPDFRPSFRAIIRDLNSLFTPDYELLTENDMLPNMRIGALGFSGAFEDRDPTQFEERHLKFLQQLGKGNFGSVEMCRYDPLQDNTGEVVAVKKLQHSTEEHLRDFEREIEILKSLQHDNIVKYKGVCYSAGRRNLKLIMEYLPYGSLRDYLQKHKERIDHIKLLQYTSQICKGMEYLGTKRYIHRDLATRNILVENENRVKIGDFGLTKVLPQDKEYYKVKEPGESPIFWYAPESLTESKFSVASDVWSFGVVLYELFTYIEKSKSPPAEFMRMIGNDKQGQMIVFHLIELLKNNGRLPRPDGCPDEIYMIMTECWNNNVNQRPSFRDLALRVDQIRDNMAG
T2 sequence (O60674 whole entry): as the sequence (O60674 whole entry V617F) above, with F617V counted along it

Structure (SMILES) | IC50 (JAK3 tyrosine kinase) | GI50 [1] | IC50 (JAK2 tyrosine kinase) | GI50 ([1]; maleate)
C[C@H](Nc1cc(-c2ccc(O)nc2)cc(Nc2cnccn2)n1)c1ccc(F)cc1 [Example 7, (S)-2′-[1-(4-Fluorophenyl)ethylamino]-6′-(pyrazin-2-ylamino)-3,4′-bipyridin-6-ol hydrochloride] | 0.039 µM | 0.09 µM | 0.00042 µM | –
CCS(=O)(=O)NCC1CN(c2cc(Nc3cnccn3)nc(N[C@@H](C)c3ccc(F)cc3)n2)C1 [Example 231, (S)—N-[(1-{2-[1-(4-Fluorophenyl)ethylamino]-6-(pyrazin-2-ylamino)pyrimidin-4-yl}azetidin-3-yl)methyl]ethane sulfonamide] | 0.033 µM | 0.097 µM | 0.00059 µM | –
C[C@H](Nc1nc(Nc2cnccn2)cc(N2CCOCC2)n1)c1ccc(F)cc1 [Example 31, (S)—N^2-[1-(4-Fluorophenyl)ethyl]-6-morpholino-N^4-(pyrazin-2-yl)pyrimidine-2,4-diamine maleate] | 0.026 µM | – | 0.00041 µM | 0.087 µM
C[C@H](Nc1cc(C(=O)NCC2CC2)cc(Nc2cnccn2)n1)c1ccc(F)cc1 [Example 167, (S)—N-Cyclopropylmethyl-2-[1-(4-fluorophenyl)ethylamino]-6-(pyrazin-2-ylamino) isonicotinamide] | 0.35 µM | 0.063 µM | 0.0016 µM | –
C[C@H](Nc1nc(Nc2cnccn2)cc(N2CCNC(=O)C2)n1)c1ccc(F)cc1 [Example 1, (S)-4-{2-[1-(4-Fluorophenyl)ethylamino]-6-(pyrazin-2-ylamino)pyrimidin-4-yl}piperazin-2-one] | 0.045 µM | 0.083 µM | 0.00094 µM | –
C[C@H](Nc1cc(-c2cn[nH]c2)cc(Nc2cnccn2)n1)c1ccc(F)cc1 [Example 28, (S)—N^2-[1-(4-Fluorophenyl)ethyl]-N^6-(pyrazin-2-yl)-4-(1H-pyrazol-4-yl)pyridine-2,6-diamine] | 0.11 µM | 0.094 µM | 0.0012 µM | –
C[C@H](Nc1nc(Nc2cnccn2)cc(N2CCOCC2)n1)c1ccc(F)cc1 [Example 20, (S)—N^2-[1-(4-Fluorophenyl)ethyl]-6-morpholino-N^4-(pyrazin-2-yl)pyrimidine-2,4-diamine] | 0.021 µM | 0.055 µM | 0.00069 µM | –
C[C@H](Nc1nc(Nc2cnccn2)cc(N2CCC(NS(C)(=O)=O)C2)n1)c1ccc(F)cc1 (stereo partly drawn) [Example 60, N-(1-{2-[(S)-1-(4-Fluorophenyl)ethylamino]-6-(pyrazin-2-ylamino)pyrimidin-4-yl}pyrrolidin-3-yl)methanesulfonamide hydrochloride] | 0.028 µM | 0.08 µM | 0.00071 µM | –
CC(C)CNC(=O)c1cc(Nc2cnccn2)nc(N[C@@H](C)c2ccc(F)cc2)c1 [Example 170, (S)-2-[1-(4-Fluorophenyl)ethylamino]-N-isobutyl-6-(pyrazin-2-ylamino) isonicotinamide] | 0.18 µM | 0.077 µM | 0.0012 µM | –
C[C@H](Nc1nc(Nc2cnccn2)cc(N2CC(N3CCOCC3)C2)n1)c1ccc(F)cc1 [Example 223, (S)—N^2-[1-(4-Fluorophenyl)ethyl]-6-(3-morpholinoazetidin-1-yl)-N^4-(pyrazin-2-yl)pyrimidine-2,4-diamine] | 0.011 µM | 0.057 µM | 0.00065 µM | –
C[C@H](Nc1nc(Nc2cnccn2)cc(N2CC(O)(C3CC3)C2)n1)c1ccc(F)cc1 [Example 200, (S)-3-Cyclopropyl-1-{2-[1-(4-fluorophenyl)ethylamino]-6-(pyrazin-2-ylamino)pyrimidin-4-yl}azetidin-3-ol hydrochloride] | 0.026 µM | 0.07 µM | 0.00039 µM | –
CCCNC(=O)c1cc(Nc2cnccn2)nc(N[C@@H](C)c2ccc(F)cc2)c1 [Example 166, (S)-2-[1-(4-Fluorophenyl)ethylamino]-N-propyl-6-(pyrazin-2-ylamino)isonicotinamide] | 0.38 µM | 0.064 µM | 0.0022 µM | –
C[C@H](Nc1nc(Nc2cnccn2)cc(N2CCC(O)(CO)CC2)n1)c1ccc(F)cc1 [Example 105, (S)-1-{2-[1-(4-Fluorophenyl)ethylamino]-6-(pyrazin-2-ylamino)pyrimidin-4-yl}-4-(hydroxymethyl)piperidin-4-ol] | 0.027 µM | 0.06 µM | 0.00055 µM | –
C[C@H](Nc1nc(Nc2cnccn2)cc(N2CC(N3CCN(C)CC3)C2)n1)c1ccc(F)cc1 [Example 224, (S)—N^2-[1-(4-Fluorophenyl)ethyl]-6-[3-(4-methylpiperazin-1-yl)azetidin-1-yl]-N^4-(pyrazin-2-yl)pyrimidine-2,4-diamine] | 0.016 µM | 0.094 µM | 0.0011 µM | –
C[C@H](Nc1nc(Nc2cnccn2)cc(N2CCC(C(=O)NS(C)(=O)=O)CC2)n1)c1ccc(F)cc1 [Example 122, (S)-1-{2-[1-(4-Fluorophenyl)ethylamino]-6-(pyrazin-2-ylamino)pyrimidin-4-yl}-N-(methylsulfonyl)piperidine-4-carboxamide] | 0.03 µM | – | 0.0004 µM | –
C[C@H](Nc1nc(Nc2cnccn2)cc(N2CCC(N)C2)n1)c1ccc(F)cc1 (stereo partly drawn) [Example 59, 6-(3-Aminopyrrolidin-1-yl)-N^2-[(S)-1-(4-fluorophenyl)ethyl]-N^4-(pyrazin-2-yl)pyrimidine-2,4-diamine] | 0.06 µM | – | 0.0017 µM | –
C[C@H](Nc1nc(Nc2cnccn2)cc(N2CC(C(=O)NCCO)C2)n1)c1ccc(F)cc1 [Example 199, (S)-1-{2-[1-(4-Fluorophenyl)ethylamino]-6-(pyrazin-2-ylamino)pyrimidin-4-yl}-N-(2-hydroxyethyl)azetidine-3-carboxamide] | 0.064 µM | – | 0.0016 µM | –
C[C@H](Nc1nc(Nc2cnccn2)cc(N2CCC[C@@H]2CO)n1)c1ccc(F)cc1 [Example 70, ((R)-1-{2-[(S)-1-(4-Fluorophenyl)ethylamino]-6-(pyrazin-2-ylamino)pyrimidin-4-yl}pyrrolidin-2-yl)methanol hydrochloride] | 0.065 µM | – | 0.0015 µM | –
